pEC50: −log10 of the molar value. “Also recorded” adds a separate entry of the source.
System: stress granules (α-G3BP1) in HeLa cells
Assay: Dose-dependent inhibition of induced stress granules in HeLa cells by immunofluorescence
Assay type: cell-based
Conditions: 2 h
Experimental: FIGS. 15A-15C. […] (FIG. 15B) Box and whisker plot of the number of SGs per cell from immunofluorescence images of G3BP1+SuTEx fragment ligand treatments in [COMPOUND LEFT OUT]-stressed cells from FIG. 15A (“x” indicates the mean; the center line is the median). […] A two-sample Student's t-test was performed for statistical comparison. (FIG. 15C) The average number of SGs per cell from FIG. 15B was plotted as a function of HHS-166 concentrations from cellular treatments to estimate the EC50 (~8 μM) for [COMPOUND LEFT OUT]-induced SG inhibition in situ. Data shown are representative of n=2 biologically independent replicates.
Immunofluorescence. Immunofluorescence (IF) of HEK293T cells was performed as previously described in Ciancone et al., 2022. HeLa cells were seeded at 9.0×10^4 in a 24-well plate with 12-mm glass coverslips. The next day, the cells were treated with 25 μM SuTEx probe for 2 hours in DMEM medium without FBS. The cells were then treated with 75 μM NaAsO2 for 30 minutes and fixed with 3% paraformaldehyde in PBS for 15 minutes at room temperature (RT) and washed with PBS twice. The fixed cells were permeabilized with PBST (0.1% Triton X-100) for 15 minutes at room temperature and blocked with 5% goat serum in PBST for 30 minutes at RT. The cells were incubated with anti-G3BP1 antibody H-10 (Catalog No. sc-365338 at 1:200 dilution; Santa Cruz Biotechnology, Inc., Dallas, Texas, United States of America) for 2 hours at RT and washed with PBST (0.1% Tween-20) for 5 minutes three times. Next, cells were incubated with goat anti-mouse Alexa 594 antibody (Catalog No. 115-585-003 at 1:800 dilution; Jackson ImmunoResearch, West Grove, Pennsylvania, United States of America) for 30 minutes at RT. […] A CellProfiler pipeline was developed to quantify the number of stress granules under each condition. Briefly, cells were recognized as blue^+ (nuclei) red^+ (G3BP1) objects, and the red^+ granules that meet the shape and size threshold were identified and counted. Cells on the border of linages were excluded from the analysis for more accurate quantification.

Structure (SMILES): COc1ccc(S(=O)(=O)n2cc(C3CCCCC3)nn2)cc1 [HHS-166, 4-Cyclohexyl-1-((4-methoxyphenyl)sulfonyl)-111-1,2,3-triazole]
- dose dependence of SG inhibition (in words) (1-25 μM): dose-dependent inhibition; also recorded: dose-dependent effects on SG formation
- pEC50 (Homo sapiens, in situ, 1-25 μM, n=2, read-out: EC50 for induced SG inhibition): 5.10
- minimal effective concentration (Homo sapiens, p<0.001, read-out: concentration giving statistically significant decrease in SG formation): ≥ 12.5 µM

From patent US20260294874A1, “COMPOSITIONS COMPRISING MODULATORS OF RIBONUCLEOPROTEIN GRANULE FORMATION AND DISSOLUTION AND METHODS OF USE THEREOF” (University of Virginia Patent Foundation, priority 2023, published 2026)
